Read-outs that look alike come from different tables or passages of the source.
What was measured:
[1] = molecular target: human MDR1 (P-gp) (Homo sapiens, UniProt P08183); experiment: Gentest ABC transporter membrane ATPase assay; details: human
[2] = molecular target: human MDR1 (Homo sapiens, UniProt P08183); experiment: Gentest ABC transporter membrane ATPase assay; details: ATPase, 0–300 μM, 30 min, 37°C
[3] = system: P-glycoprotein (Mdr1a/Mdr1b) in isolated perfused mouse lung; experiment: Isolated perfused mouse lung (IPML) airway-to-perfusate absorption, Mdr1a/1b (+/+) vs (−/−)
Protocol: The atria and the lower half of the heart were cut to allow the free flow of perfusate. The lungs were removed and suspended vertically in a custom water-jacketed glass thorax (Radleys, Essex, UK) maintained at 37°C.
Following dosing of compound into the IPML airways serial samples (250 μL) were collected for bioanalysis from the 10 mL recirculating perfusate reservoir. Each sample collected from the reservoir was replaced with an equal volume of fresh warmed, oxygenated perfusate. Upon termination of the experiment the dose solutions, apparatus washings and perfusate samples were collected for mass balance calculations enabling determination of the actual total dose delivered to the lungs.
Radioactive compounds were directly analysed by liquid scintillation counting. Volumes of 50 μL perfusate samples were mixed with 3 mL of Scintisafe 3 Liquid Scintillation Fluid (Fisher, UK) and transferred to vials for scintillation counting using a TriCarb 2900TR (Packard Bioscience, USA).
After accounting for the mass of compound removed at each sample point, plots of the cumulative ‘%deposited dose absorbed’ versus ‘time’ were generated and subject to nonlinear regression analysis according to a first-order absorption one-compartment accumulating model (Eq. 1) to generate estimates for the extent (F) and rate (Ka) of absorption from the IPML airways to the recirculating perfusate.
The data was also subject to standard non-compartmental analysis, specifically Area Under Curve (AUC0–30 min) of ‘%deposited dose absorbed’ versus ‘time’ (units: %Dose.min) and reflecting for the exclusively accumulating perfusate ‘compartment’ the exposure arising from the IPML absorption process alone.

[4] = system: P-gp (Mdr1a/1b) in mouse intestinal segments; experiment: Ussing chamber intestinal permeability, ileal segments Mdr1a/1b (+/+) vs (−/−); details: for Mdr1a/1b (−/−) Permeability coefficient: P-gp knockout intestinal segments; for Mdr1a/1b (−/−) Permeability coefficient / Mdr1a/1b (+/+) Permeability coefficient: mucosal to serosal, 50 μM, 180 min; for Ratio Permeability (−/−): (+/+): intestinal Papp KO:WT; for Mdr1a/1b (+/+) Permeability coefficient: wild-type intestinal segments
Protocol: (§1) The bathing fluid for both mucosal and serosal surfaces (3 mL volume in each chamber) comprised oxygenated Krebs-Henseleit buffer maintained at 37°C (heating block) under stirred conditions (gas flow manifold). […] Any intestinal segments presenting an initial TEER of lower than 80 Ω.cm^2 were discarded prior to the experiment, likewise any segments whose TEER decreased by more than 10% over the course of the experiment were excluded.
(§2) Thereafter permeability coefficients were determined according to Eq. 4:4 ρ=dM/dt/A^∗C0

[5] = molecular target: mouse Mdr1a (Mus musculus, UniProt P21447); experiment: Gentest ABC transporter membrane ATPase assay; details: 0–300 μM, 30 min, 37°C
Sequence of mouse Mdr1a (P21447 whole entry): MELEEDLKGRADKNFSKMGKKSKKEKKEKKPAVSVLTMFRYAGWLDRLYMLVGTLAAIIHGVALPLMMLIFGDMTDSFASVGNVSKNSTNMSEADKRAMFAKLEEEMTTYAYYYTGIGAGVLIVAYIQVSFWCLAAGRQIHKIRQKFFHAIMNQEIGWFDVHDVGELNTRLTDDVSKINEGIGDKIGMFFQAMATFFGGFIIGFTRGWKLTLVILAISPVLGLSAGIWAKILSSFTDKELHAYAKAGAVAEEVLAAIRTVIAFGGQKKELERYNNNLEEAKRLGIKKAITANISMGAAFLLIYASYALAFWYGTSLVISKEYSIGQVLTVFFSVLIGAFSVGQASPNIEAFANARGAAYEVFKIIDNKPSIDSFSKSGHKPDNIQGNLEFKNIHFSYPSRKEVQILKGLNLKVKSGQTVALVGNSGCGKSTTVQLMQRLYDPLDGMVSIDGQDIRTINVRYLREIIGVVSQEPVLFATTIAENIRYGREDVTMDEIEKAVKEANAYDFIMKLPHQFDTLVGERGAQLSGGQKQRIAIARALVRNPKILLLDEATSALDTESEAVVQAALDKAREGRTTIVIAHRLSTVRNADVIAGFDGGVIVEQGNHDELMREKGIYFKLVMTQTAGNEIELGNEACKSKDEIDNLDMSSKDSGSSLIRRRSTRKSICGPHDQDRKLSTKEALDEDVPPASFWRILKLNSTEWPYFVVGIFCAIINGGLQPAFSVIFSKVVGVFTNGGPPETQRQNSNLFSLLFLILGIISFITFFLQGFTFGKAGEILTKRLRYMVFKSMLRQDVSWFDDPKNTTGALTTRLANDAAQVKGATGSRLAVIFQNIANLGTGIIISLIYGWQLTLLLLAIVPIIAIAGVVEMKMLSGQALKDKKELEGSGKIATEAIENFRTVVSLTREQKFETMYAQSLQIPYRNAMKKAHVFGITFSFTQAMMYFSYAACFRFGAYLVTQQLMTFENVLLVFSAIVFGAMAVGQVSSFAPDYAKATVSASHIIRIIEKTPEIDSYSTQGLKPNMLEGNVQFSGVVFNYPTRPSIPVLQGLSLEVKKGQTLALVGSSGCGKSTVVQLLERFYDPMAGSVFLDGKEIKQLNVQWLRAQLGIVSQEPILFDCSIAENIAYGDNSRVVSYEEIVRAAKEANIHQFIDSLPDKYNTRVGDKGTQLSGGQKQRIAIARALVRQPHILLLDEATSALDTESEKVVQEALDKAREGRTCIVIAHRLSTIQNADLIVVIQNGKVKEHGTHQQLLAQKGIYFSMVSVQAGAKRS
Text: (§3) The Gentest ATPase assay (Corning, Germany) was used to investigate the binding kinetics of the panel of P-gp substrates against membranes constituted to display human MDR1, mouse Mdr1a, mouse Mdr1b and mouse Bcrp. The assays measure the accumulation of inorganic phosphate (absorbance at 800 nm) produced in the breakdown of ATP to ADP. […] The assays were used in accordance with the manufacturer’s protocol to calculate (GraphPad Prism) the Michaelis-Menten parameters Km and VMAX. For the assay test compounds were serially diluted to produce an assay concentration range of 0–300 μM with the kinetics of ATP turnover examined over 30 min at 37°C.

[6] = Immobilised artificial membrane (IAM) chromatography; assay type: physicochemical; details: extrapolated to 100% water; mean of four experiments
Protocol: IAM chromatography provided an experimental measure of substrate membrane affinity and phospholipid interaction. The IAM column (Regis Technologies Inc., Hichrom, Reading, UK; IAM.PC.DD2 10 cm x 4.6 mm ID column) was run under isocratic eluting conditions with the retention of all compounds determined under three mobile phase conditions: 10%, 20% and 30% acetonitrile in water, and from which the theoretical retention time in 100% water was calculated by linear regression. LogK^IAM values were calculated according to Eq. 2:2 LogK^IAM=LogTr−T0/T0
where Tr and T0 are respectively the retention times of the substrate in 100% water and of the unretained compound, i.e. eluting within the solvent front of 75 s in all experiments.

[7] = molecular target: mouse Mdr1b (Mus musculus, UniProt P06795); experiment: Gentest ABC transporter membrane ATPase assay; details: 0–300 μM, 30 min, 37°C
Sequence of mouse Mdr1b (P06795 whole entry): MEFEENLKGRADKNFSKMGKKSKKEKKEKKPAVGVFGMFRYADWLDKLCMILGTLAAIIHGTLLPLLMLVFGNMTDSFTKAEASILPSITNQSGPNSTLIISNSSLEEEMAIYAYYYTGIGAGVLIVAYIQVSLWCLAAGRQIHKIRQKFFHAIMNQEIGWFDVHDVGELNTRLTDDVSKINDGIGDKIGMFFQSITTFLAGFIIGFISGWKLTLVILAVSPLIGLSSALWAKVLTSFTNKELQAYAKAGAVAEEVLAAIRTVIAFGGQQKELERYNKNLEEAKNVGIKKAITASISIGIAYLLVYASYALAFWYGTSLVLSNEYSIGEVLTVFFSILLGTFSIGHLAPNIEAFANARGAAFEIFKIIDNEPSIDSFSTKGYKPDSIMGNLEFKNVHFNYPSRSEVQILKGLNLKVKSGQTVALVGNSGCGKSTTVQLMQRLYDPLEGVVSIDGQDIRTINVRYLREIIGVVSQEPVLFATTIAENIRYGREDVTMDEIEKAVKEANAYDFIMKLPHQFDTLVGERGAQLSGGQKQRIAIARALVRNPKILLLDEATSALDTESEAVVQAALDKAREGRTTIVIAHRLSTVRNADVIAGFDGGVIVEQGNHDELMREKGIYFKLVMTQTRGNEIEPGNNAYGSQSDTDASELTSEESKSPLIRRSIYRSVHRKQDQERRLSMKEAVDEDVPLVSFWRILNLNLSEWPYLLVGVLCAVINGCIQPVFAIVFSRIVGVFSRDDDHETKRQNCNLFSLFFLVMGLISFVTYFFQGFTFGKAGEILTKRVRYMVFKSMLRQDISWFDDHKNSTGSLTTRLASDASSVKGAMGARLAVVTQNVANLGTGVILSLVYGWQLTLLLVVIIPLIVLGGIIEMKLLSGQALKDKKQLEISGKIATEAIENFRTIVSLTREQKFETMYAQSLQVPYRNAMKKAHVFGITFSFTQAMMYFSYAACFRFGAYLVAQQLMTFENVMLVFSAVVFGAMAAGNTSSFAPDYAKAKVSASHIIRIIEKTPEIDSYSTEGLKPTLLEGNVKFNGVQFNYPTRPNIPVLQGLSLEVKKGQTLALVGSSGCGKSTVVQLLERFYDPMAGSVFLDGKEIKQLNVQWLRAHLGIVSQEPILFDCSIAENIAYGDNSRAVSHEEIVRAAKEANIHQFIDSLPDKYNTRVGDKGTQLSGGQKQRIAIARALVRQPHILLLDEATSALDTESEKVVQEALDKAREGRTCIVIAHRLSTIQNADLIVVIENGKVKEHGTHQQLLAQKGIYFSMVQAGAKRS
Text: as §3

[8] = Multi-lamellar liposome vesicle (MLV) partitioning; assay type: physicochemical; details: (C0−CS)/C0, 1 μg/mL, 4 h, 37°C, PBS pH 7.4
Protocol: MLVs were formed as previously described ([20]). Briefly, solutions of 8 mg phosphatidylcholine and 2 mg phosphatidylglycerol in 10 mL chloroform were completely dried to a lipid film (rotation under vacuum).
These preparations were then incubated at 37°C for 4 h under shaking conditions to allow equilibration of compound between the lipid and aqueous fractions. The MLVs were then pelleted and 100 μL of supernatant removed for analysis by radiometric or LC-MS/MS methods as described above. Partitioning into the MLVs was determined according to Eq. 3:3 MLVpartitioning=C0−CS/C0
where C0 is the initial compound concentration (1 μg/mL) and CS is the compound concentration present in the aqueous supernatant at the end of 4 h incubation.

[9] = molecular target: T1, mouse Bcrp (Mus musculus, UniProt Q7TMS5); experiment: Gentest ABC transporter membrane ATPase assay; assay type: biochemical
T1 construct: purchased Corning (Gentest), Germany
T1 sequence (Q7TMS5 1-657): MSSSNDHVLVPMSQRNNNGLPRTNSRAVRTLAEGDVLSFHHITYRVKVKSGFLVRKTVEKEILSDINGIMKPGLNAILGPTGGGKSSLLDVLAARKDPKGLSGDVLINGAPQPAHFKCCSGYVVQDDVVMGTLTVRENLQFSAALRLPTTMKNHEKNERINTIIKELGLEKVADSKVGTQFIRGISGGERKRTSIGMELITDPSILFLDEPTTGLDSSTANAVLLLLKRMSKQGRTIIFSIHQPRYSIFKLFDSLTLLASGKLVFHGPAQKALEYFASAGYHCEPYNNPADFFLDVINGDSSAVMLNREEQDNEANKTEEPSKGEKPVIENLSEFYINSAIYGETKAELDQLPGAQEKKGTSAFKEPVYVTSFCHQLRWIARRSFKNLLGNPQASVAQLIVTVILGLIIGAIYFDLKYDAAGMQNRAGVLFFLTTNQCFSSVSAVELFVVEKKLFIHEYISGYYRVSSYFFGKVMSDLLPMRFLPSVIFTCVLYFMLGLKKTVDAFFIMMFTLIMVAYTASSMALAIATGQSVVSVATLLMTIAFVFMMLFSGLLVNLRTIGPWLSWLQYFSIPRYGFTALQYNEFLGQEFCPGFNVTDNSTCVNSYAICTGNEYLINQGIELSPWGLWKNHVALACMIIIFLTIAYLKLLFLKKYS
Text: as §3

[10] = system: P-gp (Mdr1a/1b); experiment: Pilot in-vivo intra-nasal instillation, lung clearance
Protocol: Separate mice were sacrificed (n=3) at each time-point post-instillation (5 min, 1 hr, 3 hr, 5 hr, 7 hr and 12 hr). Lung tissue was homogenised and subjected to solute extraction approaches priod to LC-MS/MS quantitation.

[11] = system: P-gp; details: IPRL; cited from earlier work
[12] = system: P-gp; parameters: method as in PMID 23670704; details: IPRL and IPML models; cited from earlier work
[13] = system: P-gp (Mdr1a/1b) in mouse intestinal segments
Protocol: as §1, §2

[14] = parameters: method as in PMID 12761811; details: cited from earlier work
[15] = system: Caco-2 cell model; parameters: method as in PMID 12761811; details: cited from earlier work
[16] = categorisation from IPML outcomes
[17] = knockout IPML, % deposited dose absorbed vs time in perfusate
[18] = knockout IPML, within 30 minutes
[19] = wild-type IPML, within 30 minutes
[20] = ATPase, 0 indicates no enzyme turnover

Sequence of human MDR1 (P08183 whole entry, the tested form may be a part): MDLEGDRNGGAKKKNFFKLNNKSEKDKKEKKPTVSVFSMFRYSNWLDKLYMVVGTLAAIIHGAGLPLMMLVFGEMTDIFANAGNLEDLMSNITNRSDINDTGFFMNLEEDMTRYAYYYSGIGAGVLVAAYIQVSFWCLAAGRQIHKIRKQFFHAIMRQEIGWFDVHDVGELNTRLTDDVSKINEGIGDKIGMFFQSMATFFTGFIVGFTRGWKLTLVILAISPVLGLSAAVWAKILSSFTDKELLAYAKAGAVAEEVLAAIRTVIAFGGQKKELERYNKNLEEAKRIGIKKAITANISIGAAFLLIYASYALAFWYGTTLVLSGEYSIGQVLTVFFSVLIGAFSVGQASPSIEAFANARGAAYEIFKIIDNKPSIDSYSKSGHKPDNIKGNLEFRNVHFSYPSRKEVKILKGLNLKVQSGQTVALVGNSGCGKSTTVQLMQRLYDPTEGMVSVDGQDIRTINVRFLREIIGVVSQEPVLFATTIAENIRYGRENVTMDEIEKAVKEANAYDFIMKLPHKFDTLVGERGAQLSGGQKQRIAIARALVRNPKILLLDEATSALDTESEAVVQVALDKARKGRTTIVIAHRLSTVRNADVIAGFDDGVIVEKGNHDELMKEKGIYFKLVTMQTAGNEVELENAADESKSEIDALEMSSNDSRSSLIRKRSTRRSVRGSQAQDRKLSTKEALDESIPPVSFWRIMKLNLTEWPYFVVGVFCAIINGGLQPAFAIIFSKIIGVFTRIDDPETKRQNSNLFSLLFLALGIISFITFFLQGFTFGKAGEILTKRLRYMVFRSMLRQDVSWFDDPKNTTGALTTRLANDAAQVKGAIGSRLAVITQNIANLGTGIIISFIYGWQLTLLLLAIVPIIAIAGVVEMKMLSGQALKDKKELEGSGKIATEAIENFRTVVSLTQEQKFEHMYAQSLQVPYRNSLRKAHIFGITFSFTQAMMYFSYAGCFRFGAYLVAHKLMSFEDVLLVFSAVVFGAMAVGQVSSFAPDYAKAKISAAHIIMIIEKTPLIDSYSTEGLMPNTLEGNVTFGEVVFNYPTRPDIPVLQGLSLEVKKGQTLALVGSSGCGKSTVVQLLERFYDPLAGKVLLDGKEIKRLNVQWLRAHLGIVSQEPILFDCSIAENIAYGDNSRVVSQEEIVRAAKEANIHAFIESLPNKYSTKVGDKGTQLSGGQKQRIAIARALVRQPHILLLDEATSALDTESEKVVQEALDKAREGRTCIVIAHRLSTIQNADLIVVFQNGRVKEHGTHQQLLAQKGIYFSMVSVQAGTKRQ
Sequence of human MDR1 (P-gp) (P08183 whole entry): as the sequence (P08183 whole entry, the tested form may be a part) above

Compound | Vmax [2] | Group (impact of Mdr1a/1b knockout on IPML absorption) [3, 16] | Mdr1a/1b (-/-) AUC(0-30) [3, 17] | Mdr1a/1b (-/-) % Deposited Dose absorbed [3, 18] | Mdr1a/1b (+/+) ‘F’ estimate by model fit [95% CI) ([3]; male, mouse) | Mdr1a/1b (-/-) ‘F’ estimate by model fit [95% CI) ([3]; male, mouse) | Mdr1a/1b (+/+) % Deposited Dose absorbed [3, 19] | Mdr1a/1b (−/−) Permeability coefficient [4] | Ratio Permeability (−/−): (+/+) [4] | Mdr1a/1b (+/+) Permeability coefficient [4] | Km [5] | Vmax [5] | LogK^IAM [6] | Km [7] | Vmax [7] | MLV Partitioning [8] | Vmax [9, 20] | Mdr1a/1b (+/+) ‘F’ estimate by model fit [95% CI) ([3]; male, mouse, 50 μM) | Mdr1a/1b (-/-) ‘F’ estimate by model fit [95% CI) ([3]; male, mouse, 50 μM) | effect of co-administered GF120918 upon pulmonary absorption [11] | other results
COc1cc2c(c(OC)c1OC)-c1ccc(OC)c(=O)cc1[C@@H](NC(C)=O)CC2 [Colchicine, colchicine] | 16.6 µM/min | GROUP B | 571 %.min | 25.4% | 16.6 [14.7 to 18.4] | 23.3 [20.9 to 25.7] | 17.7% | 14.95 ± 3.18 cm/s (x10^−6) | 2.16 | 6.93 ± 3.15 cm/s (x10^−6) | 9.1 µM | 22.7 µM/min | 1.30 | 7.7 µM | 28.4 µM/min | 0.86 | 0 µM/min |  |  |  | Km at 30 min [1]: 15.4 µM; Ratio AUCs (-/-) : (+/+) ([3]; IPML KO:WT): 1.43; Mdr1a/1b (+/+) AUC(0-30) ([3]; wild-type IPML, % deposited dose absorbed vs time in perfusate): 398 %.min
C[C@H]1O[C@@H](O[C@H]2[C@@H](O)C[C@H](O[C@H]3[C@@H](O)C[C@H](O[C@H]4CC[C@@]5(C)[C@H](CC[C@@H]6[C@@H]5C[C@@H](O)[C@]5(C)[C@@H](C7=CC(=O)OC7)CC[C@]65O)C4)O[C@@H]3C)O[C@@H]2C)C[C@H](O)[C@@H]1O [Digoxin, digoxin] | 19.7 µM/min |  |  |  |  |  |  | 20.94 ± 2.94 cm/s (x10^−6) |  | 6.04 ± 1.46 cm/s (x10^−6) |  | 26.7 µM/min | 0.92 |  | 44.1 µM/min | 0.30 | 0 µM/min | 44.0 [37.2 to 50.8] | 49.8 [38.4 to 61.3] | no effect | Mdr1a/1b (+/+) % Deposited Dose absorbed ([3]; male, mouse, 30 min, 50 μM): 40.1%; Mdr1a/1b (-/-) % Deposited Dose absorbed ([3]; male, mouse, 30 min, 50 μM): 41.8%; lung levels 1 hr post-instillation, wild-type mice ([10]; intra-nasal 976 ng, Mdr1a/1b +/+): 1.57 % of the nominal instilled dos; lung levels 1 hr post-instillation, knockout mice ([10]; intra-nasal 976 ng, Mdr1a/1b -/-): 0.94 % of the nominal instilled dos; lung levels after 1 h post-instillation ([10]; intra-nasal, WT and KO mice): undetectable; effect of P-gp inhibition (GF120918) upon pulmonary absorption [12]: remained unaffected
CC[C@@]1([C@@H]2O[C@@H]([C@H]3O[C@@](O)(CO)[C@H](C)C[C@@H]3C)C[C@@H]2C)CC[C@H]([C@]2(C)CC[C@]3(C[C@H](O)[C@@H](C)[C@@H]([C@@H](C)[C@@H](OC)[C@H](C)C(=O)O)O3)O2)O1 [Monensin, monensin] |  |  | 722 %.min | 38.9% | 35.8 [28.0 to 43.6] | 33.7 [27.7 to 39.6] | 36.5% |  |  |  |  | 27.6 µM/min | 1.32 |  | 42.3 µM/min | 0.68 | 0 µM/min |  |  |  | Group (impact of Mdr1a/1b knockout on IPML absorption) [3]: GROUP A; Mdr1a/1b (−/−) Permeability coefficient [13]: 19.06 ± 2.41 cm/s (x10^−6)
COC(=O)c1ccccc1-c1c2ccc(=N)cc-2oc2cc(N)ccc12.Cl [Rh-123, rhodamine-123] | 36.3 µM/min | GROUP B |  | 33.2% |  |  | 20.7% | 22.55 ± 2.24 cm/s (x10^−6) | 2.49 | 9.06 ± 1.81 cm/s (x10^−6) | 6 µM | 35.2 µM/min | 1.30 | 2.2 µM | 29.7 µM/min | 0.82 | 18.5 µM/min |  |  | significantly increased | Km [2]: 2.2 µM; Mdr1a/1b (+/+) AUC(0-30) [3]: 376 %.min; Mdr1a/1b (+/+) ‘F’ estimate by model fit [95% CI) [3]: 23.5 [19.9 to 27.1]; Mdr1a/1b (-/-) AUC(0-30) [3]: 712 %.min; Mdr1a/1b (-/-) ‘F’ estimate by model fit [95% CI) [3]: 30.6 [27.6 to 33.5]; Ratio AUCs (-/-) : (+/+) ([3]; mouse): 1.89; t^1/2 for the initial decline of lung clearance, KO ([10]; mouse, in vivo): 107 min; t^1/2 for the initial decline of lung clearance, WT ([10]; mouse, in vivo): 136 min; t^1/2 terminal decline phase of lung clearance ([10]; mouse, in vivo): 500 min; effect of P-gp inhibition (GF120918) upon pulmonary absorption [12]: increased; Km [9, 20]: 110 µM; interaction with Bcrp (ATP turnover) ([9]; mouse Bcrp membrane model): showed evidence of interactions with Bcrp
CC(C)(C)NCC(O)c1ccc(O)c(CO)c1 (centres unmarked) [Salbutamol, salbutamol] | 45.6 µM/min |  |  |  |  |  |  |  |  | 10.6 ± 2.30 cm/s (x10^−6) |  | 52.3 µM/min | 1.47 |  | 49.1 µM/min | 0.88 | 0 µM/min | 24.9 [21.8 to 28.1] | 30.2 [28.2 to 32.2] |  | Group (impact of Mdr1a/1b knockout on IPML absorption) [3]: GROUP B; Mdr1a/1b (−/−) Permeability coefficient [13]: 14.90 ± 2.16 cm/s (x10^−6)
cyanocobalamin |  |  |  |  |  |  |  |  |  |  |  |  |  |  |  |  |  |  |  |  | permeability across the lung [14]: high permeability; Papp [15]: < 1 ×10⁻⁶ cm/s
